In ChEMBL document CHEMBL1201862, “PubChem BioAssay data set” (2004):
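48-hour exposure; five concentrations; linearly interpolated endpoints. Abbreviation: GI50, concentration required for 50% inhibition of growth.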 The source made the active and inactive calls. Rule as the data show it: active = GI50 up to about 1.1 µM and inactive = higher.

Columns and labels:
Assay in all cases: growth of human tumour cells (NCI), 48 h
A498 = system: A498
HCC 2998 = system: HCC 2998
SF-539 = system: SF-539
DU-145 = system: DU-145
SN12C = system: SN12C
MCF7 = system: MCF7
Malme-3M = system: Malme-3M
HCT-116 = system: HCT-116
RPMI-8226 = system: RPMI-8226
SNB-75 = system: SNB-75
KM12 = system: KM12
CAKI-1 = system: CAKI-1
OVCAR-3 = system: OVCAR-3
SF-268 = system: SF-268
OVCAR-8 = system: OVCAR-8
SK-OV-3 = system: SK-OV-3
CCRF-CEM = system: CCRF-CEM
SK-MEL-5 = system: SK-MEL-5
SW-620 = system: SW-620
M14 = system: M14
HL-60 = system: HL-60
HCT-15 = system: HCT-15
NCI-H23 = system: NCI-H23
A549 = system: A549
786-0 = system: 786-0
NCI-H522 = system: NCI-H522
NCI/ADR-RES = system: NCI/ADR-RES
OVCAR-4 = system: OVCAR-4
UACC-62 = system: UACC-62
MDA-N = system: MDA-N
EKVX = system: EKVX
NCI-H226 = system: NCI-H226
PC-3 = system: PC-3
HOP-92 = system: HOP-92
OVCAR-5 = system: OVCAR-5
SNB-19 = system: SNB-19
K562 = system: K562
HT-29 = system: HT-29
SK-MEL-28 = system: SK-MEL-28
SF-295 = system: SF-295
SR = system: SR
U-251 = system: U-251
MDA-MB-231 = system: MDA-MB-231
TK-10 = system: TK-10
ACHN = system: ACHN
Hs-578T = system: Hs-578T
IGROV-1 = system: IGROV-1
BT-549 = system: BT-549
LOX IMVI = system: LOX IMVI
COLO 205 = system: COLO 205
T47D = system: T47D
MOLT-4 = system: MOLT-4
HOP-62 = system: HOP-62
RXF 393 = system: RXF 393
NCI-H460 = system: NCI-H460
UACC-257 = system: UACC-257
UO-31 = system: UO-31
MDA-MB-435 = system: MDA-MB-435
SK-MEL-2 = system: SK-MEL-2

## C=CC[C@@]1(C)CCCCCCCCC[C@@](C)(CC=C)C1=O
A498
  GI50: 17.1 µM (inactive)
HCC 2998
  GI50: 17.4 µM (inactive)
SF-539
  GI50: 41.1 µM (inactive)
DU-145
  GI50: 50.2 µM (inactive)
SN12C
  GI50: 29.2 µM (inactive)
MCF7
  GI50: 38.8 µM (inactive)
Malme-3M
  GI50: 25.7 µM (inactive)
HCT-116
  GI50: 32.9 µM (inactive)
RPMI-8226
  GI50: 28.3 µM (inactive)
SNB-75
  GI50: 31.5 µM (inactive)
KM12
  GI50: 30.1 µM (inactive)
CAKI-1
  GI50: 35.4 µM (inactive)
OVCAR-3
  GI50: 19 µM (inactive)
SF-268
  GI50: 36.4 µM (inactive)
OVCAR-8
  GI50: 21.5 µM (inactive)
SK-OV-3
  GI50: 41.1 µM (inactive)
CCRF-CEM
  GI50: 20.2 µM (inactive)
SK-MEL-5
  GI50: 16 µM (inactive)
SW-620
  GI50: 24.6 µM (inactive)
M14
  GI50: 28.6 µM (inactive)
HL-60
  GI50: 20.7 µM (inactive)
HCT-15
  GI50: 29.4 µM
NCI-H23
  GI50: 25.5 µM (inactive)
A549
  GI50: 40 µM (inactive)
786-0
  GI50: 31.3 µM (inactive)
NCI-H522
  GI50: 35.2 µM (inactive)
NCI/ADR-RES
  GI50: 32.7 µM (inactive)
OVCAR-4
  GI50: > 100 µM (inactive)
UACC-62
  GI50: 27.9 µM (inactive)
MDA-N
  GI50: 50.8 µM (inactive)
EKVX
  GI50: 38.4 µM (inactive)
NCI-H226
  GI50: 23.8 µM (inactive)
PC-3
  GI50: 37.1 µM (inactive)
HOP-92
  GI50: 46.8 µM (inactive)
OVCAR-5
  GI50: > 100 µM (inactive)
SNB-19
  GI50: 20.5 µM (inactive)
K562
  GI50: 28.7 µM (inactive)
HT-29
  GI50: 18.7 µM (inactive)
SK-MEL-28
  GI50: 34.1 µM (inactive)
SF-295
  GI50: 21.1 µM (inactive)
SR
  GI50: 27.5 µM (inactive)
U-251
  GI50: 18.9 µM (inactive)
MDA-MB-231
  GI50: 28.8 µM (inactive)
TK-10
  GI50: 99.1 µM (inactive)
ACHN
  GI50: 34.6 µM (inactive)
Hs-578T
  GI50: 18.9 µM (inactive)
IGROV-1
  GI50: 31 µM (inactive)
BT-549
  GI50: 27.4 µM (inactive)
LOX IMVI
  GI50: 18.1 µM (inactive)
COLO 205
  GI50: 19.6 µM (inactive)
T47D
  GI50: 21.2 µM (inactive)
MOLT-4
  GI50: 20.4 µM (inactive)
HOP-62
  GI50: 38.4 µM (inactive)
RXF 393
  GI50: 16.9 µM (inactive)
NCI-H460
  GI50: 24.4 µM (inactive)
UACC-257
  GI50: 25.2 µM (inactive)
UO-31
  GI50: 53.6 µM (inactive)
MDA-MB-435
  GI50: 46.9 µM (inactive)
SK-MEL-2
  GI50: 17.8 µM (inactive)

## COC(=O)C1(Cc2ccc3c(c2)CCC3)Cc2ccc3c(c2C1=O)CCC3 (configuration not stated)
A498
  GI50: 5.61 µM (inactive)
HCC 2998
  GI50: 6.95 µM (inactive)
SF-539
  GI50: 5.68 µM (inactive)
DU-145
  GI50: 33.6 µM (inactive)
SN12C
  GI50: 12.2 µM (inactive)
MCF7
  GI50: 3.43 µM (inactive)
Malme-3M
  GI50: 4.02 µM (inactive)
HCT-116
  GI50: 3.66 µM (inactive)
RPMI-8226
  GI50: 5.4 µM (inactive)
SNB-75
  GI50: 5.42 µM (inactive)
KM12
  GI50: 4.12 µM (inactive)
CAKI-1
  GI50: 5.45 µM (inactive)
OVCAR-3
  GI50: 4.26 µM (inactive)
SF-268
  GI50: 10 µM (inactive)
OVCAR-8
  GI50: 15.2 µM (inactive)
SK-OV-3
  GI50: 20.4 µM (inactive)
CCRF-CEM
  GI50: 5.21 µM (inactive)
SK-MEL-5
  GI50: 4.35 µM (inactive)
SW-620
  GI50: 4.11 µM (inactive)
M14
  GI50: 4.26 µM (inactive)
HL-60
  GI50: 2.86 µM (inactive)
HCT-15
  GI50: 3.66 µM
NCI-H23
  GI50: 6.62 µM (inactive)
A549
  GI50: 9.48 µM (inactive)
786-0
  GI50: 7.33 µM (inactive)
NCI-H522
  GI50: 3.92 µM (inactive)
NCI/ADR-RES
  GI50: 3.07 µM (inactive)
OVCAR-4
  GI50: 7.73 µM (inactive)
UACC-62
  GI50: 3.84 µM (inactive)
MDA-N
  GI50: 2.01 µM (inactive)
EKVX
  GI50: 11.1 µM (inactive)
NCI-H226
  GI50: 10.5 µM (inactive)
PC-3
  GI50: 9.02 µM (inactive)
HOP-92
  GI50: 4.84 µM (inactive)
OVCAR-5
  GI50: 21.1 µM (inactive)
SNB-19
  GI50: 8.91 µM (inactive)
K562
  GI50: 3.37 µM (inactive)
HT-29
  GI50: 3.29 µM (inactive)
SK-MEL-28
  GI50: 8.22 µM (inactive)
SF-295
  GI50: 3.72 µM (inactive)
SR
  GI50: 2.55 µM (inactive)
U-251
  GI50: 4.65 µM (inactive)
MDA-MB-231
  GI50: 5.78 µM (inactive)
TK-10
  GI50: 11.8 µM (inactive)
ACHN
  GI50: 18.6 µM (inactive)
Hs-578T
  GI50: 3.26 µM (inactive)
IGROV-1
  GI50: 5.46 µM (inactive)
BT-549
  GI50: 5.68 µM (inactive)
LOX IMVI
  GI50: 5.87 µM (inactive)
COLO 205
  GI50: 3.05 µM (inactive)
T47D
  GI50: 4.35 µM (inactive)
MOLT-4
  GI50: 4.06 µM (inactive)
HOP-62
  GI50: 7.23 µM (inactive)
RXF 393
  GI50: 2.11 µM (inactive)
NCI-H460
  GI50: 12.7 µM (inactive)
UACC-257
  GI50: 8.65 µM (inactive)
UO-31
  GI50: 10.6 µM (inactive)
MDA-MB-435
  GI50: 1.73 µM (inactive)
SK-MEL-2
  GI50: 4.32 µM (inactive)

## C=Cc1nc2c(Cl)ncnc2n1Cc1ccccc1
A498
  GI50: 7.13 µM (inactive)
HCC 2998
  GI50: 2.61 µM (inactive)
SF-539
  GI50: 2.13 µM (inactive)
DU-145
  GI50: 2.17 µM (inactive)
SN12C
  GI50: 6.43 µM (inactive)
MCF7
  GI50: 1.55 µM (inactive)
Malme-3M
  GI50: 4.03 µM (inactive)
HCT-116
  GI50: 2.06 µM (inactive)
RPMI-8226
  GI50: 0.839 µM (active)
SNB-75
  GI50: 13.6 µM (inactive)
KM12
  GI50: 2.84 µM (inactive)
CAKI-1
  GI50: 1.91 µM (inactive)
OVCAR-3
  GI50: 2.58 µM (inactive)
SF-268
  GI50: 6.35 µM (inactive)
OVCAR-8
  GI50: 3.2 µM (inactive)
SK-OV-3
  GI50: 15.3 µM (inactive)
CCRF-CEM
  GI50: 2.74 µM (inactive)
SK-MEL-5
  GI50: 2.54 µM (inactive)
SW-620
  GI50: 5.94 µM (inactive)
M14
  GI50: 3.88 µM (inactive)
HL-60
  GI50: 2.72 µM (inactive)
HCT-15
  GI50: 2.51 µM
NCI-H23
  GI50: 3.52 µM (inactive)
A549
  GI50: 11.2 µM (inactive)
786-0
  GI50: 1.6 µM (inactive)
NCI-H522
  GI50: 1.89 µM (inactive)
NCI/ADR-RES
  GI50: 3.7 µM (inactive)
OVCAR-4
  GI50: 2.76 µM (inactive)
UACC-62
  GI50: 6.68 µM (inactive)
MDA-N
  GI50: 3.12 µM (inactive)
EKVX
  GI50: 4.7 µM (inactive)
NCI-H226
  GI50: 3.08 µM (inactive)
PC-3
  GI50: 3.52 µM (inactive)
HOP-92
  GI50: 2.07 µM (inactive)
OVCAR-5
  GI50: 14.7 µM (inactive)
SNB-19
  GI50: 14.8 µM (inactive)
K562
  GI50: 3.05 µM (inactive)
HT-29
  GI50: 2.62 µM (inactive)
SK-MEL-28
  GI50: 3.1 µM (inactive)
SF-295
  GI50: 15.6 µM (inactive)
SR
  GI50: 2.56 µM (inactive)
U-251
  GI50: 10.5 µM (inactive)
MDA-MB-231
  GI50: 5.74 µM (inactive)
TK-10
  GI50: 2.11 µM (inactive)
ACHN
  GI50: 1.86 µM (inactive)
Hs-578T
  GI50: 13.2 µM (inactive)
IGROV-1
  GI50: 3.08 µM (inactive)
BT-549
  GI50: 4.71 µM (inactive)
LOX IMVI
  GI50: 2.76 µM (inactive)
COLO 205
  GI50: 1.53 µM (inactive)
T47D
  GI50: 2.59 µM (inactive)
MOLT-4
  GI50: 2.18 µM (inactive)
HOP-62
  GI50: 3.34 µM (inactive)
RXF 393
  GI50: 2.69 µM (inactive)
NCI-H460
  GI50: 7.8 µM (inactive)
UACC-257
  GI50: 2.59 µM (inactive)
UO-31
  GI50: 2.51 µM (inactive)
MDA-MB-435
  GI50: 2.65 µM (inactive)
SK-MEL-2
  GI50: 12.1 µM (inactive)
